In the NIST ThermoML archive (doi:10.1016/j.jct.2017.06.001):

Test: xn = mol fraction of the nth substance listed
Details: 303.15 K, 100 kPa, Liquid, Frequency=5 MHz, Pulse-echo method

OCCCCCO [1,5-pentanediol] + O
Details	speed of sound [m/s]
x1 = 0.1172	1668.9
x1 = 0.1188	1669.4
x1 = 0.1225	1670.4
x1 = 0.1232	1670.5
x1 = 0.127	1671.5
x1 = 0.1286	1671.8
x1 = 0.1312	1672.4
x1 = 0.1344	1673
x1 = 0.135	1673.1
x1 = 0.1389	1673.8
x1 = 0.1394	1673.8
x1 = 0.1443	1674.5
x1 = 0.1445	1674.6
x1 = 0.1496	1675.2
x1 = 0.1507	1675.3
x1 = 0.1548	1675.7
x1 = 0.1571	1675.9
x1 = 0.1598	1676.1
x1 = 0.163	1676.3
x1 = 0.1658	1676.5
x1 = 0.1708	1676.7
x1 = 0.1802	1676.9
x1 = 0.1897	1677
x1 = 0.1979	1676.8
x1 = 0.2069	1676.6
x1 = 0.2148	1676.3
x1 = 0.2235	1675.9
x1 = 0.2319	1675.5
x1 = 0.2409	1674.9
x1 = 0.2504	1674.3
x1 = 0.2626	1673.4
x1 = 0.2732	1672.6
x1 = 0.2834	1671.8
x1 = 0.2953	1670.8
x1 = 0.3083	1669.6
x1 = 0.3214	1668.4
x1 = 0.3389	1666.8
x1 = 0.3516	1665.5
x1 = 0.3648	1664.2
x1 = 0.3773	1662.8
x1 = 0.3937	1661.1
x1 = 0.4071	1659.6
x1 = 0.4199	1658.1
x1 = 0.4346	1656.3
x1 = 0.447	1654.8
x1 = 0.4637	1652.8
x1 = 0.4812	1650.5
x1 = 0.4955	1648.6
x1 = 0.5124	1646.4
x1 = 0.5315	1643.8
x1 = 0.5497	1641.2
x1 = 0.5687	1638.5
x1 = 0.5883	1635.7
x1 = 0.6098	1632.7
x1 = 0.63	1629.8
x1 = 0.6445	1627.7
x1 = 0.6622	1625.2
x1 = 0.6847	1622
x1 = 0.7039	1619.3
x1 = 0.7252	1616.4
x1 = 0.7448	1613.7
x1 = 0.7674	1610.7
x1 = 0.7881	1608.1
x1 = 0.8098	1605.3
x1 = 0.8318	1602.6
x1 = 0.8478	1600.6
x1 = 0.8678	1598.2
x1 = 0.8839	1596.3
x1 = 0.9005	1594.4
x1 = 0.9185	1592.2
x1 = 0.9359	1590.2
x1 = 0.9494	1588.6
x1 = 0.9623	1587.1
x1 = 0.9723	1585.9
x1 = 0.9822	1584.7
x1 = 0.9892	1583.9
x1 = 0.9947	1583.2
x1 = 0.9972	1582.9
x1 = 1	1582.5
